Test results from PubChem BioAssay (NCI).
Where “and” joins values, the source holds several entries; their conditions need not be identical. Equal entries are not always repeated.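 Cultured in 96-well plates, cells were exposed to test compound for 48 hours across five concentrations. GI50 marks 50% less growth. TGI is the concentration that stops growth completely.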

Experiments:
Assay in all cases: NCI tumour cell line growth inhibition, 48 h
[1] = test system: MCF7 breast
[2] = test system: SK-OV-3 ovarian
[3] = test system: K-562 leukemia
[4] = test system: OVCAR-3 ovarian
[5] = test system: OVCAR-4 ovarian
[6] = test system: A549 NSCLC
[7] = test system: HOP-92 NSCLC
[8] = test system: NCI/ADR-RES ovarian
[9] = test system: A498 renal
[10] = test system: MDA-MB-435

Structure (SMILES)	TGI [1] [µM]	TGI [2]	TGI [3]	TGI [4]	TGI [5]	TGI [6]	TGI [7] [µM]	TGI [8] [µM]	TGI [9] [µM]	TGI [10] [µM]	GI50 [1] [nM]	GI50 [2]	GI50 [3]	GI50 [4]	GI50 [5]	GI50 [6]	GI50 [7]	GI50 [8] [µM]	GI50 [9] [nM]	GI50 [10] [nM]
O=C1C=CC(O)C2C1CC13SSC4(CC5C(=O)C=CC(O)C5N4C1=O)C(=O)N23 (centres undefined)	> 100	14.1 µM	> 100 µM	0.53 µM	4.89 µM	10.8 µM	0.573	0.093	6.26	0.434										
NCCSCCc1ccccc1	> 100	> 100 µM	> 100 µM	> 100 µM	> 100 µM	> 100 µM	> 100	> 100	> 100	> 100										
C=C1[C@@H]([C@@]2(C)C=CC(=O)C(C)(C)[C@@H]2CC(=O)OC)CC[C@@]2(C)C(c3ccoc3)OC(=O)[C@H]3O[C@]132 (some centres undefined)	> 100	> 100 µM		> 100 µM	> 100 µM	> 100 µM	> 100	> 100	> 100	> 100										
O=[N+]([O-])c1ccc(S(=O)(=O)Cc2ccccc2)c2nonc12	43	> 100 µM	76.7 µM	37.2 µM	34.1 µM	83.8 µM	39.7	68	> 100	40.4										
Cc1ccc(-c2nc(N3CCCNCC3)c3oc(-c4ccc(C)cc4)nc3n2)cc1	3.88	31.6 µM	2.68 µM	3.1 µM	4.67 µM	3.13 µM	2.3	3.74	31.7	3.17	1850	17.8 µM	946 nM	1.73 µM	2.11 µM	1720 nM	1010 nM	1.96	15800	1780
Cc1nc(Nc2nc3ccccc3o2)nc(-c2cccc([N+](=O)[O-])c2)c1C(=O)Nc1ccc(F)c(Cl)c1	9.73	> 100 µM	> 100 µM	13.8 µM	35 µM	> 100 µM	4.66	10.5	3.5	8.01	2040	2.8 µM	1840 nM	1.02 µM	1.62 µM	1920 nM	1390 nM	2.33	853	2160
N#Cc1cc(S(=O)(=O)Nc2nc3ccccc3s2)c(SCc2ccccc2)cc1Cl	> 100		> 100 µM	59.5 µM	> 100 µM	35.3 µM	43.3	> 100	45.8	49.5	30700		38500 nM	22.3 µM	34.4 µM	15400 nM	24100 nM	30.6	20300	23800
COc1ccc(Nc2cc(C)nc(N3CCN(c4ccnc5cc(Cl)ccc45)CC3)n2)cc1	4.51	> 100 µM	> 100 µM	6.15 µM	> 100 µM	> 100 µM	5.59	8.43	7.26	6.43	284	4.81 µM	2340 nM	2.31 µM	1.76 µM	2000 nM	1040 nM	2.48	832	1060
C=C1c2c(Cl)ccc(O)c2C(O)=C2C(=O)[C@]3(O)C(O)=C(C(N)=O)C(=O)[C@@H](N(C)C)[C@@H]3[C@@H](O)[C@H]12	6.66	3.2 µM	> 50 µM	5.25 µM	9.66 µM	16.6 µM	2.16	> 50	4.09	7.97	1760	1 µM	1660 nM	1.36 µM	0.347 µM	1390 nM	669 nM	2.43	663	1530
[Cl][Cd][Cl]	19.2	> 60 µM and 26 µM	51.3 µM and 147 µM	8 µM and 25.9 µM and 15.3 µM	36.1 µM and 23.7 µM	> 66.5 µM and 106 µM	35.3	277	32.9	30.9	9110	44.3 µM and 12.4 µM	2010 nM and 20000 nM and 14800 nM	3.26 µM and 12.1 µM and 6.94 µM	7.95 µM and 19.6 µM and 8.69 µM	> 47800 nM and 33200 nM	> 80200 nM and 15200 nM	120	14000	8260
Oc1ccc(Cl)cc1CNc1nc2ccccc2[nH]1	33.1	34.8 µM	56 µM	29 µM	37.5 µM	30.2 µM	10.4	37.8	18.2	26.2	10400	16.8 µM	15400 nM	12.7 µM	11.4 µM	12700 nM	2370 nM	11.5	141	13200
C/C=C(\C)C(=O)N[C@H]1C(O)C[C@]2(C)C3CC[C@@]4(C)C(CC[C@@H]4C(C)N(C)C)C3CCC2C1O (some centres undefined)	17.4	42.4 µM	8.34 µM	19.5 µM	> 100 µM	33.6 µM	33.4	> 75.5	30.1	5.85	2890	16.1 µM	1900 nM	4.68 µM	8.52 µM	9540 nM	6440 nM	18.4	10400	2540
O=C1OC(c2ccccc2)=N/C1=C\c1cccc(F)c1	> 100	> 100 µM	> 100 µM	> 100 µM	94.9 µM	> 100 µM	> 100	69.9	> 100	> 100										
CCCNc1nc2ccccc2c2c1S(=O)(=O)c1ccc(Cl)cc1C2=O	> 50	41.1 µM	> 50 µM	3.1 µM	> 50 µM	> 50 µM	0.475	> 50	16.8	> 50	1090	3.06 µM	450 nM	0.944 µM	0.95 µM	1990 nM	89.9 nM	1.37	1510	1110
CNC(=O)OCC1C2=C(C(=O)C(C)=C(N)C2=O)N2CC3C(N3C)C12OC (centres undefined)	> 100	> 100 µM	> 100 µM	> 100 µM	33 µM	29.5 µM	> 100	> 100	34.2	> 100										
CCN(CC)CCOc1ccc(C(=O)/C=C\c2ccc(Cl)cc2Cl)cc1	3.12	24.3 µM	9.13 µM	14.3 µM	16.6 µM	22.6 µM	16.3	23.3	24.7	7.36	1290	11.8 µM	2410 nM	3.84 µM	3.82 µM	6550 nM	3630 nM	9.91	12300	2560
COc1cc(/C=C/C(=O)c2cccnc2Nc2ccc(F)cc2)cc(OC)c1OC	13.6	8.67 µM		6.61 µM	19 µM	11.5 µM	5.65	8.14	8.28	69.3	2440	3.1 µM		2.63 µM	3.81 µM	2660 nM	1670 nM	2.37	2180	3050
O=S(=O)(NCCNc1nccc(-c2c(-c3ccc(F)cc3)nc3sccn23)n1)c1ccccc1	> 100	> 100 µM	> 100 µM	76 µM	> 100 µM	> 100 µM	8.14	> 100	> 100	> 100	722	10.8 µM	4350 nM	11.3 µM	5.6 µM	1930 nM	1340 nM	5.6	5230	2560
CCN(CC)CCSCCCNc1c2ccc(Cl)cc2nc2ccc(OC)cc12	3.26	3.92 µM		4.18 µM	3.03 µM	3.03 µM	3.41	3.7	2.16	2.89	791	1.56 µM		1.3 µM	0.756 µM	980 nM	1640 nM	1.15	654	1460
O=C1CC(c2ccc(Cl)cc2)Oc2ccccc21 (centres undefined)	13.6	61 µM	9.46 µM		> 100 µM		56.5	50.6	73	> 100										
COc1ccc(OC)c(Nc2nc(-c3c(C)nc4sccn34)cs2)c1	> 100	> 100 µM		> 100 µM	> 100 µM	> 100 µM	98.4	> 100	> 100	> 100	1950	24.6 µM		92.7 µM	14.2 µM	> 100000 nM	8630 nM	15	1630	> 100000
